Results published in patent US9663478B2, “Benzotriazine oxides as drugs targeting Mycobacterium tuberculosis” (priority 2011, dated 2017).
Converted amounts (≈) assume the structure as drawn. Like-named read-outs stand apart in the source and are kept apart here.

Experiments:
Vero cells = conditions: African green monkey, 72 h
Mtb H37Rv [1] = assay: TB MIC - ITR (UIC), Institute for Tuberculosis Research; format: cell-based, Mycobacterium tuberculosis; conditions: for MIC: Mycobacterium tuberculosis, H37RV, Tables 1-4, read-out: TB MIC - ITR; for TB MIC - UIC: Tables P1, P2
NRP Mtb H37Rv cells = assay: Low-oxygen recovery assay (LORA) MIC; format: cell-based, Mycobacterium tuberculosis; conditions: for MIC: Mycobacterium tuberculosis, H37RV, read-out: LORA MIC - ITR; for LORA MIC: Tables P1, P2, non-replicating M. tuberculosis
Mtb H37Rv [2] = assay: TB MIC - SRI, resazurin-based microplate assay; format: cell-based, Mycobacterium tuberculosis; conditions: for MIC: Mycobacterium tuberculosis, H37RV
[3] = Tables 1-4 and text, read-out: TB MIC - SRI
[4] = Tables P1-P3, read-out: TB MIC - SRI

SMILES | Vero Tox CC50 (Vero cells) [µg/mL] | MIC (Mtb H37Rv [1]) [µg/mL] | MIC (NRP Mtb H37Rv cells; NRP Mtb, Tables 1-4 and text) [µg/mL] | MIC (Mtb H37Rv [2]; [3]) [µg/mL] | VERO Tox-SRI (Vero cells) | MIC (Mtb H37Rv [2]; [4]) [µg/mL] | further results
[O-][n+]1nc(NC2CCCC2)[n+]([O-])c2ccc(Br)cc21 [Compound 15ce, 7-bromo-3-(cyclopentylamino)benzo[e][1,2,4]triazine 1,4-dioxide] | 18 | 0.35 (≈ 1.08 µM) | 0.46 (≈ 1.41 µM) | 0.15 (≈ 0.461 µM) |  |  | 
Cc1c(N2CCCC2)[n+]([O-])c2ccccc2[n+]1[O-] [Cmpd 6] | >16 |  | > 32 | > 10 |  |  | 
CC(C)CC(C)Nc1n[n+]([O-])c2cc(F)ccc2[n+]1[O-] (stereo not drawn) [SRI-012281] |  |  |  |  | <2.5 | 1.25 (≈ 4.46 µM) | TB MIC - UIC (Mtb H37Rv [1]): 0.55 µg/mL; LORA MIC (NRP Mtb H37Rv cells): 0.4 µg/mL
[O-][n+]1nc(N[C@@H]2C[C@H]3CC[C@@H]2C3)[n+]([O-])c2cc3c(cc21)CCC3 [Compound 15fm, 3-((1R,2R,4S)-bicyclo[2.2.1]heptan-2-ylamino)-7,8-dihydro-6H-indeno[5,6-e][1,2,4]triazine 1,4-dioxide] | >50 | 0.93 (≈ 2.98 µM) | 0.36 (≈ 1.15 µM) | 1.2 (≈ 3.84 µM) |  |  | 
[O-][n+]1nc(NC2CCCCC2)[n+]([O-])c2ccc(Cl)cc21 [Compound 15bf, 7-chloro-3-(cyclohexylamino)benzo[e][1,2,4]triazine 1,4-dioxide] | 2.6 | 0.94 (≈ 3.19 µM) | 0.63 (≈ 2.14 µM) | 0.62 (≈ 2.1 µM) |  |  | 
CS(=O)(=O)N1CCN(c2n[n+]([O-])c3cc4c(cc3[n+]2[O-])CCC4)CC1 [Compound 20x, 3-(4-(methylsulfonyl)piperazin-1-yl)-7,8-dihydro-6H-indeno[5,6-e][1,2,4]triazine 1,4-dioxide] | >50 | 13 (≈ 35.6 µM) | 15 (≈ 41 µM) | 2.5 to 5 (≈ 6.84 to 13.7 µM) |  |  | TB MIC - SRI (Mtb H37Rv [2]; Tables 1-4 and text): 5.0 µg/mL
CCNc1n[n+]([O-])c2cc(OC)ccc2[n+]1[O-] [SRI-012285] |  |  |  |  | 15.8 |  | TB MIC - UIC (Mtb H37Rv [1]): 15.1 µg/mL; LORA MIC (NRP Mtb H37Rv cells): 16.2 µg/mL
CN(C)c1n[n+]([O-])c2cc3c(cc2[n+]1[O-])CCC3 [Compound 20s, 3-(dimethylamino)-7,8-dihydro-6H-indeno[5,6-e][1,2,4]triazine 1,4-dioxide] | 24 | 0.3 (≈ 1.22 µM) |  |  |  |  | MIC (NRP Mtb H37Rv cells): 1.5 µg/mL (≈ 6.09 µM); MIC (Mtb H37Rv [2]; Table 5, read-out: MIC, H37Rv): 0.62 µg/mL (≈ 2.52 µM)
CCN(CC)c1n[n+]([O-])c2ccccc2[n+]1[O-] [Compound 17o, 3-(diethylamino)benzo[e][1,2,4]triazine 1,4-dioxide] | 12 | 0.46 (≈ 1.96 µM) | 1.3 (≈ 5.55 µM) | 0.31 (≈ 1.32 µM) |  |  | 
COCCNC(=O)c1ccc2c(c1)[n+]([O-])c(O)c(C#N)[n+]2[O-] [Cmpd 4] | >16 |  | > 32 | > 20 |  |  | 
CCNc1n[n+]([O-])c2cc(C)c(OC)cc2[n+]1[O-] [Compound 15ga, 3-(ethylamino)-6-methoxy-7-methylbenzo[e][1,2,4]triazine 1,4-dioxide] | >100 | 3.5 (≈ 14 µM) |  | 2.5 (≈ 9.99 µM) |  |  | MIC (Mtb H37Rv [2]; Table 5, read-out: MIC, H37Rv): 1.2 µg/mL (≈ 4.8 µM)
CN(Cc1ccccc1)c1n[n+]([O-])c2cc3c(cc2[n+]1[O-])CCC3 [Compound 20t, 3-(benzyl(methyl)amino)-7,8-dihydro-6H-indeno[5,6-e][1,2,4]triazine 1,4-dioxide] | 17 |  | 0.41 (≈ 1.27 µM) |  |  |  | MIC (Mtb H37Rv [2]; Table 5, read-out: MIC, H37Rv): 0.31 µg/mL (≈ 0.962 µM)
COc1ccc2c(c1)[n+]([O-])nc(NC1CCC1)[n+]2[O-] [SRI-012463] |  |  |  |  | 9.85 | 0.625 (≈ 2.38 µM) | 
Cc1cccc2c1[n+]([O-])c(NC1CCC1)n[n+]2[O-] [SRI-012460] |  |  |  |  | 21.8 | 0.312 (≈ 1.27 µM) | 
Cc1cccc2c1[n+]([O-])c(NC1CCCC1)n[n+]2[O-] [SRI-012473] |  |  |  |  | 3.7 | 0.312 (≈ 1.2 µM) | 
[O-][n+]1nc(N[C@@H]2C[C@H]3CC[C@@H]2C3)[n+]([O-])c2ccc(Br)cc21 [SRI-012467] |  |  |  |  | 0.81 | 0.312 (≈ 0.888 µM) | 
Cc1cc2c(cc1C)[n+]([O-])c(NC1CCC1)n[n+]2[O-] [SRI-012459] |  |  |  |  | 21.8 | 0.625 (≈ 2.4 µM) | 
[O-][n+]1nc(NC2CCC2)[n+]([O-])c2cc3c(cc21)CCC3 [SRI-012403] |  |  |  |  | 33.6 | 0.625 (≈ 2.3 µM) | 
